Several values for one entry are separate records, joined by “and”; a condition that tells them apart may be missing. Equal entries are not always repeated. Marks after values point to notes of the source that are not given here.
Tests used:
[1] = Longitudinal relaxivity (r1) turn-on response to Cu+ from T1 measurements at 60 MHz; type: physicochemical; conditions: 1 equiv Cu^+, 20 mM HEPES buffer, pH 7, 37° C.
Method: The longitudinal relaxivity values for the CG contrast agents in the absence or presence of copper ions were determined using T1 measurements at 60 MHz. Studies were performed at 37° C. in 20 mM HEPES buffered to pH 7, and solutions of the purified CG sensors for relaxivity experiments contained 0.2 mM Gd^3+ as determined by ICP-OES. Spectroscopic data are collected in Table 1.
Upon addition of up to 1 equiv of copper ions, the relaxivity values of the CG contrast agents increase, establishing the ability of these probes to sense copper using the MR modality (Table 1, FIG. 3). CG2, CG3, CG4, and CG5 respond to Cu^+ with relaxivity increases ranging from 92% to 360%. […] These values represent the largest relaxivity enhancements observed to date for metal-activated MR contrast agents and a ca. 9-fold improvement in copper ion response compared to CG1 (41% increase). The observed differences in turn-on Cu^+ responses for benzyl-substituted CG4 (290% increase) versus methyl-substituted CG5 (92% increase) with the same pyridyl-thioether receptor show the marked effects that small peripheral substitutions can have on relaxivity properties.

[2] = Electrochemical Cu2+/Cu+ reduction potentials of copper-bound CG complexes; type: physicochemical; conditions: PBS buffer, pH 7.4
Method: CG6 is a unique member of the CG family that is equally responsive to both Cu^+ and Cu^2+. Addition of either Cu^+ or Cu^2+ to CG6 triggers a maximum 73% relaxivity turn-on from r1=2.2 mM^−1s^−1 to r1=3.8 mM^−1s^−1. […] On the other hand, copper-bound CG6, which responds to both Cu^+ and Cu^2+, has the least positive Cu^2+/Cu^+ reduction potential at +0.13 V.

[3] = Metal ion selectivity of relaxivity response (competing metal ions alone or with added copper); type: physicochemical; conditions: relaxivity at 60 MHz, 20 mM HEPES, pH 7, 37° C.
Method: FIG. 6. Relaxivity responses of CG2 to various metal ions. White bars represent the addition of an excess of the appropriate metal ion (10 mM for Na^+, 2 mM for K^+, Mg^2+, and Ca^2+, and 0.2 mM for Fe^2+, Fe^3+, Cu^2+) to a 0.2 mM solution of CG2. Response to Zn^2+ was measured both at 0.2 mM Zn^2+ (Zn^2+1×) and 2 mM Zn^2+ (Zn^2+10×). Black bars represent the subsequent addition of 0.2 mM Cu^+ to the CG2 solution. Relaxivity measurements were acquired at 37° C. in 20 mM HEPES buffer, pH 7, at a proton Larmor frequency of 60 MHz.
The potential ability of this new family of CG sensors to sense bioavailable copper pools in either or both its predominant oxidation states represents a significant advance over the initial CG1 compound.

[4] = Kinetic stability to metal ion exchange monitored by LC/MS; type: physicochemical; conditions: 1 equiv of Cu^2+
[5] = Nuclear magnetic relaxation dispersion (NMRD) profiles, Solomon-Bloembergen-Morgan fit; type: physicochemical; conditions: copper free
Method: FIG. 9. ^1H Nuclear magnetic relaxation dispersion profiles of CG3 and CG3+Cu^+ acquired at 25° C. The solid lines represent the best fit profiles.
As a secondary, independent set of experiments to further probe the mechanisms of copper ion sensing by the CG contrast agents, we also performed nuclear magnetic relaxation dispersion (NMRD) measurements of these sensors in the absence and in the presence of copper ions using a field cycling relaxometer (FIG. 9). The profiles obtained were analyzed following Solomon-Bloembergen-Morgan theory^36-38 for the inner-sphere relaxivity and the Freed model^115 for the outer-sphere relaxivity, fixing the diffusion coefficient (D) at […], the distance between Gd^3+ and the inner sphere water protons (r) at 3.1 Å, and the inner sphere exchange lifetime (τM) at 160 ns, the reported value for the parent complex Gd^3+-DO3A. Profiles were obtained for all compounds in the copper-free state. Profiles in the presence of Cu^n+ were obtained for CG2-4 (Cu^+) and CG6 (Cu^2+).
In fact, the measured outer-sphere relaxivities were so low that, in order to obtain a reasonable fit, the distance of closest approach of outer-sphere water protons (a) was allowed to vary. The distances obtained for the CG complexes (4.2-4.8 Å) were markedly longer than what is observed for typical Gd^3+ contrast agents with greater water access (3.8-4 Å). These values correlate with the copper-free relaxivities of CG2-6; longer a values give lower relaxivities and shorter a values give higher relaxivities. For Cu^+-sensing agents CG2-4, the estimated change in q of 2 as determined by DIS measurements was also observed in the fitted NMRD data. In fact, any attempt to fit the observed NMRD profiles with q=1 led to very poor agreement between experimental and calculated values. The change in q of 1 for CG6 upon addition of Cu^2+ as determined by NMRD is consistent with the lower turn-on response observed with this complex compared to CG2-4. The reduced q modulation for CG6 relative to CG2-4 could indicate that the carboxylic acid moiety used for Cu^2+ binding also interacts with the Gd^3+ center in the Cu^2+-bound state. The fitted rotational correlation times (τR) for copper-bound CG complexes all fall within the range expected for Gd^3+ complexes with molecular weights of 700-800 D. τR values for copper-free CG2-6 were fixed to values close to their copper-bound analogues as fits of NMRD data for q=0 complexes are not sensitive to small changes in τR. The values of Δ^2 (average quadratic transient zero field splitting), τv (electronic correlation time), and τs0 (electronic relaxation time at zero field), which govern the electronic relaxation time, are relatively similar to each other. These NMRD values are closer to those of Gd^3+-DTPA than Gd^3+-DOTA, reflecting the asymmetry of CG2-6.^64

[6] = T1-weighted phantom magnetic resonance imaging at 1.5 T; conditions: 100 μM sensor with Cu^+ at 0, 10, 25, 50, 75, and 100 μM
Method: FIG. 10. A) T1-weighted phantom images of 100 μM CG2-6 in 20 mM HEPES pH 7 with and without 1 equiv Cu^n+. B) Phantom images of 100 μM CG2-6 with 0, 10, 25, 50, 75, and 100 μM [Cu(NCCH3)4]PF6. Images were acquired at 25° C. at 1.5 T (˜64 MHz proton Larmor frequency).
With spectroscopic data showing the turn-on relaxivity responses, binding properties, metal ion selectivities, and copper-induced changes in q values for this new series of CG contrast agents in hand, we next sought to test the ability of these sensors to detect changes in aqueous Cu^+ and/or Cu^2+ levels using MRI. […] In this context, chelatable copper pools have been identified in the mitochondrial matrix^22 and in the Golgi apparatus.^23 Moreover, the cerebrospinal fluid (CSF) contains micromolar levels of copper ions, most of which is not bound to ceruloplasmin due to the low concentrations of this protein in the CSF,^24,25 which may result in facile exchange between different copper binding ligands.^26

r1 (1 equiv Cu) [1]: 6.9 mM^−1s^−1 and 6.9^b mM^−1s^−1
Cu^2+/+ E1/2 [2]: 0.46 V vs. SHE
metal ion exchange (kinetic stability) ([4]; 37° C., after 4 hours): No metal ion exchange was observed
metal ion exchange (kinetic stability) ([4]; room temperature, after 7 days): No metal ion exchange was observed
τs0 (electronic relaxation time at zero field) [5]: 75.6 ps
r1p 20 MHz 25° C. ([5]; 0.5 mM, 20 mM HEPES pH 7): 1.6 mM⁻¹ s⁻¹
a (distance of closest approach of outer-sphere water protons) ([5]; best-fit value): 4.7 ± 0.11 Å
Δ^2 (average quadratic transient zero field splitting) ([5]; best-fit value): 5.8 ± 1.1 10^19 s^−2
τv (electronic correlation time) ([5]; best-fit value): 19 ± 2.4 ps
q ([5]; fixed in the fitting procedure): 0^c
τR (rotational correlation time) ([5]; not experimentally determined, assumed equal to corresponding q ≠ 0 complex (CG5: average of the other complexes)): 110^d ps
Compound: CCSCCN(CCSCC)Cc1cccc(CN2CCN(CC(=O)[O-])CCN(CC(=O)[O-])CCN(CC(=O)[O-])CC2)n1.[Gd+3] [CG2]
redox specificity of relaxivity response (Cu^+ vs Cu^2+) [3]: give turn-on relaxivity increases with Cu^+ but do not respond to Cu^2+
visualization of copper level differences in phantom images [6]: can readily visualize differences in copper levels in a biologically relevant μM range
